Consider 58 compounds from patent US8778929B2, “Substituted heteroaryl inhibitors of B-RAF” (Boehringer Ingelheim International GmbH, priority 2008, dated 2014).

The target in the experiment is B-Raf (V600E)-kinase (Homo sapiens, UniProt P15056, V600E). Put plainly: Kinase test B-Raf (V600E). Type of experiment: biochemical. The settings on record: 100% = no inhibition, 0% = total inhibition, read-out: % CTL (residual activity of the enzyme relative to DMSO control); for remaining activity at 2 µM: compound concentration 2 μM; for remaining activity at 0.29 µM: measurement at 0.29 μM (*). In a few lines: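 Kinase preincubated with compound (typically 2 μM to 0.119 nM or 0.017 nM, 5% DMSO) 1 h at RT, then reacted 60 min at RT with 250 μM ATP and biotinylated MEK1. Phospho-MEK (Ser217/221) captured on streptavidin, detected by europium time-resolved fluorescence; IC50 from dose-response curves.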
B-Raf (V600E)-kinase, sequence (P15056 whole entry V600E): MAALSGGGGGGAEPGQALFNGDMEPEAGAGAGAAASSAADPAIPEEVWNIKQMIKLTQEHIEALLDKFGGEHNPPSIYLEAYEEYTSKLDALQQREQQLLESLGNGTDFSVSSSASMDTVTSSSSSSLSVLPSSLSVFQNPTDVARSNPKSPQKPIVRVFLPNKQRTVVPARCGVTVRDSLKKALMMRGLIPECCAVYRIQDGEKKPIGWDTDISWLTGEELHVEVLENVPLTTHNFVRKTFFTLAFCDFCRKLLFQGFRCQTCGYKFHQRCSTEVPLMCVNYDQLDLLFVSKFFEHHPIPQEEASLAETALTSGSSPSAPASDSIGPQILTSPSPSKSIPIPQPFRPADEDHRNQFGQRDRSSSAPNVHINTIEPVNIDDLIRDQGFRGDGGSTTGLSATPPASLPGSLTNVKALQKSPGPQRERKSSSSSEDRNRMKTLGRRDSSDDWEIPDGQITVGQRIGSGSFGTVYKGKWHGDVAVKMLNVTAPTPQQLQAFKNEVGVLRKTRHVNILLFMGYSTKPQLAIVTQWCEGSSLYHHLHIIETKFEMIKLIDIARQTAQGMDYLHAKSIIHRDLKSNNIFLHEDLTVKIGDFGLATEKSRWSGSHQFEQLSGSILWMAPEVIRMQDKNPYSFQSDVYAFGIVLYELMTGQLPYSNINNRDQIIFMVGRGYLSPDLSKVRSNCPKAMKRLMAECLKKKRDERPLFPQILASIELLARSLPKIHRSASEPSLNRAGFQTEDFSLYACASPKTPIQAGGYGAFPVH

Take `Cc1ncc(NC(=O)c2cc(N3CCN(C)CC3)cc(C(F)(F)F)c2)cc1-n1cc(-c2cnn(C)c2C)nn1` [XII-1]: the remaining activity at 2 µM was determined as 4.4%. On to `Cc1ncc(NC(=O)c2cc(C(F)(F)F)ccn2)cc1-n1cc(-c2cnn(C)c2C)nn1` [XII-2], for which the remaining activity at 2 µM turned out to be 4.6%.

On to `Cc1ncc(NC(=O)c2cc(C(C)(C)C)on2)cc1-n1cc(-c2cnn(C)c2C)nn1` [XII-3], for which the remaining activity at 2 µM was 4.7%. For `Cc1ncc(NC(=O)c2cc(N3CCN(C)CC3)c(F)c(C(F)(F)F)c2)cc1-n1cc(-c2cnn(C)c2C)nn1` [XII-5], the remaining activity at 2 µM turned out to be 1.8%.

As to `Cc1ncc(NC(=O)c2cccc(C(C)(C)C#N)c2)cc1-n1cc(-c2cnn(C)c2C)nn1` [XII-6], the remaining activity at 2 µM is 4.7%. The same measure, in the same setting: to `COc1ccc(C(=O)Nc2cnc(C)c(-n3cc(-c4cnn(C)c4C)nn3)c2)cc1C(F)(F)F` [XII-7] belongs 4.7%. Same read-out and setting: to `Cc1ncc(NC(=O)c2cccc(OC(F)(F)F)c2)cc1-n1cc(-c2cnn(C)c2C)nn1` [XII-8] belongs 6.4%; to `Cc1ccc(C(F)(F)F)cc1C(=O)Nc1cnc(C)c(-n2cc(-c3cnn(C)c3C)nn2)c1` [XII-9], 6.6%. The same measure, in the same setting: to `Cc1ncc(NC(=O)c2cccc(C(C)(C)C#N)c2)cc1-n1cc(-c2cncnc2)nn1` [XII-10] belongs 2.5%. Regarding `Cc1ncc(NC(=O)c2cccc(C(C)(C)C#N)c2)cc1-n1cc(-c2cccnc2)nn1` [XII-11], the remaining activity at 1.43 µM (measurement at 1.43 μM (***)) amounted to 1.5%.

In the case of `COc1cncc(-c2cn(-c3cc(NC(=O)c4cccc(C(C)(C)C#N)c4)cnc3C)nn2)c1` [XII-12], the remaining activity at 2 µM came out at 5.2%. Same read-out and setting: to `Cc1ncc(NC(=O)c2cccc(C(C)(C)C#N)c2)cc1-n1cc(-c2cncc(C#N)c2)nn1` [XII-13] belongs 0.9%. On to `CC(=O)Nc1ncc(-c2cn(-c3cc(NC(=O)c4cccc(C(C)(C)C#N)c4)cnc3C)nn2)s1` [XII-14], for which the remaining activity at 0.29 µM came out at 0.9%. As to `Cc1ncc(NC(=O)c2cc(OC(F)(F)F)cc(N3CCN(C)CC3)c2)cc1-n1cc(-c2cnn(C)c2C)nn1` [XII-15], the remaining activity at 2 µM is 0.8%.

As to `COc1cncc(-c2cn(-c3cc(NC(=O)c4cc(OC(F)(F)F)cc(N5CCN(C)CC5)c4)cnc3C)nn2)c1` [XII-16], the remaining activity at 2 µM is 0.7%. Still for that read-out and setting: to `Cc1ncc(NC(=O)c2cc(OC(F)(F)F)cc(N3CCN(C)CC3)c2)cc1-n1cc(-c2cccnc2)nn1` [XII-17] belongs 0.9%; to `Cc1cn2c(-c3cn(-c4cc(NC(=O)c5cc(N6CCN(C)CC6)c(C)c(C(F)(F)F)c5)cnc4C)nn3)cnc2cn1` [XII-18], 2.1%; to `CC(=O)Nc1ncc(-c2cn(-c3cc(NC(=O)c4cc(OC(F)(F)F)cc(N5CCN(C)CC5)c4)cnc3C)nn2)s1` [XII-19], 6.5%.

For the compound `Cc1ncc(NC(=O)c2cc(OC(F)(F)F)cc(N(C)CCN(C)C)c2)cc1-n1cc(-c2cnn(C)c2C)nn1` [XII-20], the remaining activity at 2 µM came out at 1.6%.

On to `Cc1ncc(NC(=O)c2cc(NCCN(C)C)cc(OC(F)(F)F)c2)cc1-n1cc(-c2cnn(C)c2C)nn1` [XII-21], for which the remaining activity at 2 µM turned out to be 1.5%. For the compound `CCN1CCN(c2cc(OC(F)(F)F)cc(C(=O)Nc3cnc(C)c(-n4cc(-c5cnn(C)c5C)nn4)c3)c2)CC1` [XII-22], the remaining activity at 2 µM worked out at 3.4%.

As for `Cc1ncc(-c2cn(-c3cc(NC(=O)c4cc(OC(F)(F)F)cc(N5CCN(C)CC5)c4)cnc3C)nn2)s1` [XII-23], the remaining activity at 2 µM is 7.2%.

Consider `COCCN1CCN(c2cc(OC(F)(F)F)cc(C(=O)Nc3cnc(C)c(-n4cc(-c5cnn(C)c5C)nn4)c3)c2)CC1` [XII-24], for which the remaining activity at 2 µM worked out at 3.8%. With `Cc1ncc(NC(=O)c2cc(OC(F)(F)F)cc(N3CCOCC3)c2)cc1-n1cc(-c2cnn(C)c2C)nn1` [XII-25], the remaining activity at 2 µM worked out at 3.9%.

Regarding `Cc1ncc(NC(=O)c2cc(OC(F)(F)F)cc(N3CCN(C)CC3)c2)cc1-n1cc(-c2cncnc2)nn1` [XII-26], the remaining activity at 2 µM is 2.2%. With `Cc1ncc(NC(=O)c2cc(OC(F)(F)F)cc(N3CCN(C)CC3)c2)cc1-n1cc(-c2cncc(C#N)c2)nn1` [XII-27], the remaining activity at 2 µM is 2.4%. As to `Cc1ncc(NC(=O)c2cc(OC(F)(F)F)cc(N(C)C3CCN(C)C3)c2)cc1-n1cc(-c2cnn(C)c2C)nn1` (stereo not shown) [XII-28], the remaining activity at 2 µM was determined as 2%.

On to `Cc1ncc(NC(=O)c2cc(OC(F)(F)F)cc(N3CCC(N(C)C)C3)c2)cc1-n1cc(-c2cnn(C)c2C)nn1` (stereo not shown) [XII-29], for which the remaining activity at 2 µM was found to be 1.6%. As for `Cc1ncc(NC(=O)c2cc(OC(F)(F)F)cc(C3=CCNCC3)c2)cc1-n1cc(-c2cnn(C)c2C)nn1` [XII-30], the remaining activity at 2 µM turned out to be 1.8%. `COCCCN1CCN(c2cncc(-c3cn(-c4cc(NC(=O)c5cc(C(F)(F)F)ccn5)cnc4C)nn3)c2)CC1` [XII-31]: the remaining activity at 2 µM worked out at 1.9%.

As for `Cc1ncc(NC(=O)c2cc(C(F)(F)F)ccn2)cc1-n1cc(-c2cncc(N3CCN(C(C)(C)C)CC3)c2)nn1` [XII-32], the remaining activity at 2 µM came to 2.9%. As to `CCOCCN1CCN(c2cncc(-c3cn(-c4cc(NC(=O)c5cc(C(F)(F)F)ccn5)cnc4C)nn3)c2)CC1` [XII-33], the remaining activity at 2 µM turned out to be 1.7%. Still for that read-out and setting: to `Cc1ncc(NC(=O)c2cccc(C(C)(C)C#N)c2)cc1-n1cc(-c2cncc(N3CCN(C)CC3)c2)nn1` [XII-34] belongs 0.8%; to `Cc1ncc(NC(=O)c2cc(C(F)(F)F)ccn2)cc1-n1cc(-c2cncc(N3CCN(C(C)C)CC3)c2)nn1` [XII-35], 1.7%. The same measure, in the same setting: to `Cc1ncc(NC(=O)c2cccc(OC(F)(F)F)c2)cc1-n1cc(-c2cncc(N3CCN(C)CC3)c2)nn1` [XII-36] belongs 1.3%.

Regarding `Cc1ncc(NC(=O)c2cc(C(F)(F)F)ccn2)cc1-n1cc(-c2cncc(N3CCN(CC(C)C)CC3)c2)nn1` [XII-37], the remaining activity at 2 µM was found to be 2.3%.

Regarding `CCN1CCN(c2cncc(-c3cn(-c4cc(NC(=O)c5cc(C(F)(F)F)ccn5)cnc4C)nn3)c2)CC1` [XII-38], the remaining activity at 2 µM came out at 2.1%. Consider `CCN1CCN(c2cncc(-c3cn(-c4cc(NC(=O)c5ccc(OC)c(C(F)(F)F)c5)cnc4C)nn3)c2)CC1` [XII-39], for which the remaining activity at 2 µM turned out to be 2.5%. `COc1ccc(C(=O)Nc2cnc(C)c(-n3cc(-c4cncc(N5CCN(C)CC5)c4)nn3)c2)cc1C(F)(F)F` [XII-40]: the remaining activity at 0.29 µM is 3%. For `CCCN1CCN(c2cncc(-c3cn(-c4cc(NC(=O)c5cc(C(F)(F)F)ccn5)cnc4C)nn3)c2)CC1` [XII-41], the remaining activity at 2 µM was 3.1%. Regarding `Cc1ncc(NC(=O)c2cccc(OC(F)(F)F)c2)cc1-n1cc(-c2cncc(N3CCN(C(C)C)CC3)c2)nn1` [XII-42], the remaining activity at 2 µM is 4.3%. Still for that read-out and setting: to `COc1ccc(C(=O)Nc2cnc(C)c(-n3cc(-c4cncc(N5CCN(C(C)C)CC5)c4)nn3)c2)cc1C(F)(F)F` [XII-43] belongs 2.1%. On the same count and under the same terms, to `CCOCCN1CCN(c2cncc(-c3cn(-c4cc(NC(=O)c5ccc(OC)c(C(F)(F)F)c5)cnc4C)nn3)c2)CC1` [XII-44] belongs 1.9%; to `COc1ccc(C(=O)Nc2cnc(C)c(-n3cc(-c4cncc(N5CCN(C(C)(C)C)CC5)c4)nn3)c2)cc1C(F)(F)F` [XII-45], 2.9%. Take `COCCCN1CCN(c2cncc(-c3cn(-c4cc(NC(=O)c5ccc(OC)c(C(F)(F)F)c5)cnc4C)nn3)c2)CC1` [XII-46]: the remaining activity at 2 µM came out at 1.8%. The same measure, in the same setting: to `Cc1ncc(NC(=O)c2cccc(OC(F)(F)F)c2)cc1-n1cc(-c2cncc(N3CCN(C(C)(C)C)CC3)c2)nn1` [XII-47] belongs 4%; to `COCCCN1CCN(c2cncc(-c3cn(-c4cc(NC(=O)c5cccc(OC(F)(F)F)c5)cnc4C)nn3)c2)CC1` [XII-48], 2.4%. Same read-out and setting: to `Cc1ncc(NC(=O)c2cccc(C(C)(C)C#N)c2)cc1-n1cc(-c2cncc(N3CCN(CC4CC4)CC3)c2)nn1` [XII-49] belongs 2.3%.

On to `Cc1ncc(NC(=O)c2cccc(C(C)(C)C#N)c2)cc1-n1cc(-c2cncc(N3CCN(C(C)C)CC3)c2)nn1` [XII-50], for which the remaining activity at 2 µM was determined as 6.8%. The same measure, in the same setting: to `CCN1CCN(c2cncc(-c3cn(-c4cc(NC(=O)c5cccc(C(C)(C)C#N)c5)cnc4C)nn3)c2)CC1` [XII-51] belongs 2.3%. `Cc1ncc(NC(=O)c2cccc(C(C)(C)C#N)c2)cc1-n1cc(-c2cncc(NCCN(C)C)c2)nn1` [XII-52]: the remaining activity at 2 µM is 7%. The same measure, in the same setting: to `Cc1ncc(NC(=O)c2cccc(C(C)(C)C#N)c2)cc1-n1cc(-c2cncc(N(C)CCN(C)C)c2)nn1` [XII-53] belongs 7%. On to `CCOCCN1CCN(c2cncc(-c3cn(-c4cc(NC(=O)c5cccc(OC(F)(F)F)c5)cnc4C)nn3)c2)CC1` [XII-54], for which the remaining activity at 2 µM is 10.8%.

For the compound `CCN1CCN(c2cncc(-c3cn(-c4cc(NC(=O)c5cccc(OC(F)(F)F)c5)cnc4C)nn3)c2)CC1` [XII-55], the remaining activity at 2 µM turned out to be 1.8%.

Consider `Cc1ncc(NC(=O)c2cc(C(F)(F)F)ccn2)cc1-n1cc(-c2cncc(N3CCN(C)CC3)c2)nn1` [XII-57], for which the remaining activity at 2 µM was 0.9%. `Cc1ncc(NC(=O)c2cccc(C(C)(C)C#N)c2)cc1-n1cc(-c2cncc(CO)c2)nn1` [XII-63]: the remaining activity at 2 µM was 3.8%. Same read-out and setting: to `Cc1ncc(NC(=O)c2cccc(C(C)(C)C#N)c2)cc1-n1cc(-c2cncc(CN(C)C)c2)nn1` [XII-64] belongs 0.9%; to `Cc1ncc(NC(=O)c2cccc(C(C)(C)C#N)c2)cc1-n1cc(-c2cncc(CN3CCCC3)c2)nn1` [XII-65], 0.9%.
